Experimental data from patent US7696161B2, “Exendin agonist compounds” (Amylin Pharmaceuticals, Inc., priority 1997, dated 2010).

How the values were obtained:
[1] = system: Harlan Sprague Dawley (HSD) rats; test: Gastric emptying in rats (phenol red gel gavage); type: in vivo; conditions: for EC50 (gastric emptying): conscious male HSD rats, gastric contents remaining 20 min after gavage; for effect on gastric emptying (in words): male HSD rats, dose-response 0.1-100 μg
Text: This experiment followed a modification of the method of Scarpignato, et al., Arch. Int. Pharmacodyn. […] Male Harlan Sprague Dawley (HSD) rats were used. […] ID. […] Twenty minutes after gavage, rats were anesthetized using 5% halothane, the stomach exposed and clamped at the pyloric and lower esophageal sphincters using artery forceps, removed and opened into an alkaline solution which was made up to a fixed volume. Stomach content was derived from the intensity of the phenol red in the alkaline solution, measured by absorbance at a wavelength of 560 nm. In separate experiments on 7 rats, the stomach and small intestine were both excised and opened into an alkaline solution. […] ID.

[2] = system: C57BLKS/J-m-db mice; test: Determination of blood glucose levels in db/db mice; type: in vivo; conditions: 1 μg subcutaneous, plasma glucose one hour after injection vs baseline
[3] = target: cyclase (RINm5f membranes); test: Cyclase activation study (cAMP by SPA immunoassay, membranes); type: biochemical; conditions: cAMP in membranes, 20 minutes incubation at 37° C.
Description: GLP-1(7-36) [NH2] was purchased from Bachem (Torrance, Calif.). All other peptides were prepared using synthesis methods such as those described therein. All chemicals were of the highest commercial grade. The cAMP SPA immunoassay was purchased from Amersham. The radioligands were purchased from New England Nuclear (Boston, Mass.). […] Cells were grown to confluence then harvested and homogenized using on a Polytron homogenizer. Cell homogenates were stored frozen at −70° C. until used. […] Membranes and peptides were combined in […] of assay buffer in 96 well filter-bottom plates (Millipore Corp., Bedford, Mass.). […] Supernatant cAMP contents were quantitated by SPA immunoassay. […] The biological activity of a particular sample was expressed as an EC50 value, calculated as described above.

EC50 (gastric emptying) [1] [µg]	EC50 [3] [nM]	SMILES	effect on gastric emptying (in words) [1]	% drop in glucose [2] [%]
0.27	5.37	CC[C@H](C)[C@H](NC(=O)[C@H](Cc1ccccc1)NC(=O)[C@H](CC(C)C)NC(=O)[C@H](CCCNC(=N)N)NC(=O)[C@@H](NC(=O)[C@H](C)NC(=O)[C@H](CCC(=O)O)NC(=O)[C@H](CCC(=O)O)NC(=O)[C@H](CCC(=O)O)NC(=O)[C@H](CC(C)C)NC(=O)[C@H](CCC(N)=O)NC(=O)[C@H](C)NC(=O)[C@H](CO)NC(=O)[C@H](CC(C)C)NC(=O)[C@H](CC(=O)O)NC(=O)[C@H](CO)NC(=O)[C@@H](NC(=O)[C@H](Cc1ccccc1)NC(=O)[C@@H](NC(=O)CNC(=O)[C@H](CCC(=O)O)NC(=O)CNC(=O)[C@@H](N)Cc1c[nH]cn1)[C@@H](C)O)[C@@H](C)O)C(C)C)C(=O)N[C@@H](CCC(=O)O)C(=O)N[C@@H](Cc1ccccc1)C(=O)N[C@@H](CC(C)C)C(=O)N[C@@H](CCCCN)C(=O)N[C@@H](CC(N)=O)C(N)=O [Compound 10]	potent inhibitors of gastric emptying	46
60	79.6	CC[C@H](C)[C@H](NC(=O)[C@H](Cc1ccccc1)NC(=O)[C@H](CC(C)C)NC(=O)[C@H](CCCNC(=N)N)NC(=O)[C@@H](NC(=O)[C@H](C)NC(=O)[C@H](CCC(=O)O)NC(=O)[C@H](CCC(=O)O)NC(=O)[C@H](C)NC(=O)[C@H](CC(C)C)NC(=O)[C@H](CCC(N)=O)NC(=O)[C@H](CCCCN)NC(=O)[C@H](CO)NC(=O)[C@H](CC(C)C)NC(=O)[C@H](CC(=O)O)NC(=O)[C@H](CO)NC(=O)[C@@H](NC(=O)[C@H](Cc1ccccc1)NC(=O)[C@@H](NC(=O)CNC(=O)[C@H](CCC(=O)O)NC(=O)CNC(=O)[C@@H](N)Cc1c[nH]cn1)[C@@H](C)O)[C@@H](C)O)C(C)C)C(=O)N[C@@H](CCC(=O)O)C(=O)N[C@@H](Cc1ccccc1)C(=O)N[C@@H](CC(C)C)C(=O)N[C@@H](CCCCN)C(=O)N[C@@H](CC(N)=O)C(N)=O [Compound 13]	potent inhibitors of gastric emptying	45
–	5.12	CC[C@H](C)[C@H](NC(=O)[C@H](Cc1ccccc1)NC(=O)[C@H](CC(C)C)NC(=O)[C@H](CCCNC(=N)N)NC(=O)[C@H](C)NC(=O)[C@H](C)NC(=O)[C@H](CCC(=O)O)NC(=O)[C@H](CCC(=O)O)NC(=O)[C@H](CCC(=O)O)NC(=O)[C@H](CC(C)C)NC(=O)[C@H](CCC(N)=O)NC(=O)[C@H](CCCCN)NC(=O)[C@H](CO)NC(=O)[C@H](CC(C)C)NC(=O)[C@H](CC(=O)O)NC(=O)[C@H](CO)NC(=O)[C@@H](NC(=O)[C@H](Cc1ccccc1)NC(=O)[C@@H](NC(=O)CNC(=O)[C@H](CCC(=O)O)NC(=O)CNC(=O)[C@@H](N)Cc1c[nH]cn1)[C@@H](C)O)[C@@H](C)O)C(=O)N[C@@H](CCC(=O)O)C(=O)N[C@@H](Cc1ccccc1)C(=O)N[C@@H](CC(C)C)C(=O)N[C@@H](CCCCN)C(=O)N[C@@H](CC(N)=O)C(N)=O [Compound 16]	–	54
–	43.6	CC[C@H](C)[C@H](NC(=O)[C@H](Cc1ccccc1)NC(=O)[C@H](CC(C)C)NC(=O)[C@H](C)NC(=O)[C@@H](NC(=O)[C@H](C)NC(=O)[C@H](CCC(=O)O)NC(=O)[C@H](CCC(=O)O)NC(=O)[C@H](CCC(=O)O)NC(=O)[C@H](CC(C)C)NC(=O)[C@H](CCC(N)=O)NC(=O)[C@H](CCCCN)NC(=O)[C@H](CO)NC(=O)[C@H](CC(C)C)NC(=O)[C@H](CC(=O)O)NC(=O)[C@H](CO)NC(=O)[C@@H](NC(=O)[C@H](Cc1ccccc1)NC(=O)[C@@H](NC(=O)CNC(=O)[C@H](CCC(=O)O)NC(=O)CNC(=O)[C@@H](N)Cc1c[nH]cn1)[C@@H](C)O)[C@@H](C)O)C(C)C)C(=O)N[C@@H](CCC(=O)O)C(=O)N[C@@H](Cc1ccccc1)C(=O)N[C@@H](CC(C)C)C(=O)N[C@@H](CCCCN)C(=O)N[C@@H](CC(N)=O)C(N)=O [Compound 17]	–	45
–	0.76	CC[C@H](C)[C@H](NC(=O)[C@H](Cc1ccccc1)NC(=O)[C@H](C)NC(=O)[C@H](CCCNC(=N)N)NC(=O)[C@@H](NC(=O)[C@H](C)NC(=O)[C@H](CCC(=O)O)NC(=O)[C@H](CCC(=O)O)NC(=O)[C@H](CCC(=O)O)NC(=O)[C@H](CC(C)C)NC(=O)[C@H](CCC(N)=O)NC(=O)[C@H](CCCCN)NC(=O)[C@H](CO)NC(=O)[C@H](CC(C)C)NC(=O)[C@H](CC(=O)O)NC(=O)[C@H](CO)NC(=O)[C@@H](NC(=O)[C@H](Cc1ccccc1)NC(=O)[C@@H](NC(=O)CNC(=O)[C@H](CCC(=O)O)NC(=O)CNC(=O)[C@@H](N)Cc1c[nH]cn1)[C@@H](C)O)[C@@H](C)O)C(C)C)C(=O)N[C@@H](CCC(=O)O)C(=O)N[C@@H](Cc1ccccc1)C(=O)N[C@@H](CC(C)C)C(=O)N[C@@H](CCCCN)C(=O)N[C@@H](CC(N)=O)C(N)=O [Compound 18]	–	50
